Test results: PMC10424187, “Structure-Guided Design and Synthesis of a Pyridazinone Series of Trypanosoma cruzi Proteasome Inhibitors” (Journal of Medicinal Chemistry, 2023)
Where “and” joins values, the source holds several entries; their conditions need not be identical. Equal entries are not always repeated.

How the values were obtained:
[1] = tested on: intracellular T. cruzi X10/7 A1 amastigotes
[2] = molecular target: Human 20S proteasome (Homo sapiens, UniProt P28074+P49721); assay: human proteasome assay (chymotrypsin-like activity, Suc-LLVY-Rho-110-DPro); conditions: for Emax: read-out: Hs Prot Max Response (%), individual replicate
Description: T. cruzi and human proteasome assays
(§1) The T. cruzi proteasome was partially purified as described in the above reference and Human
(§2) 20S proteasome was purchased from Boston Biochem (now R&D Systems, catalogue number
(§3) a Tecan Fluent to titrate over 11 points in Labcyte Echo-compatible Greiner Bio-One 384 well
(§4) polypropylene microplates. Subsequently, 100 nl of test compound titrations were transferred
(§5) to black Greiner Bio-One low volume 384 well microplates using a Labcyte Echo acoustic
(§6) 50 mM HEPES pH 7.5, 150 mM sodium chloride, 5% Glycerol, 1 mM dithiothreitol, 1 mM
(§7) CHAPS in deionised, filtered water (all chemicals purchased from Sigma Aldrich). Human 20S
(§8) These enzyme solutions were prepared immediately prior to assay initiation and stored at 4 °C
(§9) To monitor the Chymotrypsin-like activity of the T. cruzi and Human 20S proteasome proteins
(§10) a self-quenched, Rhodamine 110-labelled peptide with the sequence Suc-LLVY-Rho-110-
(§11) DPro was used (prepared by Cambridge Research Biochemicals. Suc is succinyl, while DPro
(§12) refers to ᴅ-proline). The peptide was initially prepared from solid as a 10 mM solution in 100%
(§13) DMSO and stored at -20 °C. Prior to use in the assay, an aliquot was thawed at room
(§14) to twofold Km. For use with the Human 20S proteasome, the Suc-LLVY-Rho-110-DPro
(§15) peptide was diluted in assay buffer to a concentration equivalent to twofold Km, which for this
(§16) enzyme was 2 μM. The peptide solutions were protected from light and stored at 4 °C before
(§17) A Multidrop Micro (Thermo Fisher), using a low volume dispense cassette, was used to add
(§18) the assay solutions to the test compounds in the low volume 384-well microplates. Prior to
(§19) addition of proteasome solution, 5 μl of assay buffer was added to one column (containing 100
(§20) nl, 100% DMSO) to act as no enzyme control to mimic full inhibition. Subsequently, 5 μl of
(§21) proteasome solution (either T. cruzi or Human 20S) was added to all wells on the test
(§22) microplate apart from the column containing 5 μl assay buffer. The microplate was then spun
(§23) using a suitable bench top centrifuge for 1 minute at 1000 rpm, before incubation at room
(§24) Following the initial incubation, 5 μl of substrate solution was then added to all wells on the
(§25) test microplate using a Multidrop Micro equipped with a discrete low volume dispense cassette.
(§26) The test microplates were then spun for 10 seconds at 1000 rpm before being rapidly moved to
(§27) a multi-mode microplate reader, capable of monitoring fluorescence intensity. The microplate
(§28) reader used for these studies was a Tecan M1000 Pro, equipped with quad monochromators.
(§29) 530 ± 5 nm. A series of fluorescence intensity measurements were taken every 30 seconds for
(§30) Subsequently, the fluorescence intensity measurements (relative fluorescence units, RFU) were
(§31) fit to a simple linear regression model (y = A + Bx, where y refers to the fluorescence intensity
(§32) and x refers to the time in seconds) to determine the initial rate of reaction. The initial rate for
(§33) every compound concentration tested was then fit a 4-parameter logistic model: y = (A + (B -
(§34) A)) / (1 + (x / C)D), where y refers to the assay response, x refers to the inhibitor concentration,
(§35) A and B are the range values (minimum and maximum, respectively), C is the IC50 value and
(§36) D is the slope. Potency values were then reported as pIC50, which is the negative log of the
(§37) IC50 (on a molar scale). Data analysis was automated and carried out using the ActivityBase

[3] = molecular target: T. cruzi proteasome (Trypanosoma cruzi, UniProt V5BU39+V5C017); assay: T. cruzi proteasome assay (chymotrypsin-like activity, Suc-LLVY-Rho-110-DPro); conditions: for Tc Prot Hill Slope / Tc Prot Max Response (%): individual replicate; for Emax: read-out: Tc Prot Max Response (%), individual replicate; for T. cruzi Prot pIC50: mean of at least three independent replicates
Chain of T. cruzi proteasome (V5BU39 entry or part of it): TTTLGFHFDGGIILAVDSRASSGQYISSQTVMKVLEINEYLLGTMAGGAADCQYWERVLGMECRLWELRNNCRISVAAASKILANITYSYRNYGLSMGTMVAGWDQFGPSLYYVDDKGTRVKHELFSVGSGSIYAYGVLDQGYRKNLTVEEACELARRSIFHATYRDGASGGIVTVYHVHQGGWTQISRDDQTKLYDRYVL
Chain of T. cruzi proteasome (V5C017 entry or part of it): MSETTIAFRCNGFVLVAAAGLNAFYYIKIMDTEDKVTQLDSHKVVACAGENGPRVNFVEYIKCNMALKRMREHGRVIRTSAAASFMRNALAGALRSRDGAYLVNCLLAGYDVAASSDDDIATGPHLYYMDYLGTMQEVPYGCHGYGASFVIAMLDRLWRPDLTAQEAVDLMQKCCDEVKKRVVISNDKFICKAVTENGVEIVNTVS
Description: T. cruzi and human proteasome assays
as §1, §2, §3, §4, §5, §6, §7, §8, §9, §10, §11, §12, §13, §14, §15, §16, §17, §18, §19, §20, §21, §22, §23, §24, §25, §26, §27, §28, §29, §30, §31, §32, §33, §34, §35, §36, §37

[4] = Mouse microsomal intrinsic clearance; format: in vitro ADME; conditions: mouse liver microsomes, scaling 52.5 mg microsomal protein/g liver
Description: Mouse microsomal intrinsic clearance.
This assay was conducted as previously described:
J.; Reid, I. H.; Hill, A. P.;
were prepared by adding a volume (5 µL) of the 10 mM solution to a volume (195 µL) of […]

[5] = ChromLogD; format: physicochemical; conditions: pH 7.4; read-out: Chrom LogDpH7.4
Description: Chrom LogD was measured as previously described:
solubility and hydrophobicity. Drug Discov. Today 2010, 15, 648−655. […]

[6] = tested on: host VERO cells
[7] = mean of at least three independent replicates
[8] = T. cruzi Prot pIC50, mean of at least three independent replicates
[9] = Tc Prot pIC50, individual replicate

## COc1ccc(Cn2nc(C(=O)Nc3ccc(F)c(C(=O)N[C@H]4C[C@H](N5CCOCC5)C4)c3)ccc2=O)cc1F [Compound 23, N-(4-Fluoro-3-((trans-3-morpholinocyclobutyl)carbamoyl)phenyl)-1-(3-fluoro-4-methoxybenzyl)-6-oxo-1,6-dihydropyridazine-3-carboxamide]
[1]
  Emax: 96% and 93% and 98% and 95% and 97% and 94%
[2]; individual replicate
  Hs Prot Max Response (%): 15% and 17%
  Hs Prot pIC50: < 4
[2]; [7]
  Hs Prot pIC50: <4
[2]
  Emax: 13%
[3]; [8]
  IC50: 7.94 nM
[3]; [9]
  IC50: 5.01 nM
[3]
  Tc Prot Hill Slope: 1.2 and 1.1
  Tc Prot Max Response (%): 86%
  Emax: 88%

## O=C(Nc1cccc(C(=O)NC2CC2)c1)c1ccc(=O)n(Cc2ccccc2)c1 [Compound 8, 1-Benzyl-N-(3-(cyclopropylcarbamoyl)phenyl)-6-oxo-1,6-dihydropyridine-3-carboxamide]
[4]
  Mouse CLi: 0.8 mL/min/g
[5]
  chromatographic logD: 3.3
[1]
  EC50: > 50100 nM
[6]
  EC50: > 50100 nM and 39800 nM and 25100 nM
[2]; individual replicate
  Hs Prot Max Response (%): 12% and 6%
  Hs Prot pIC50: < 4
[2]; [7]
  Hs Prot pIC50: <4
[2]
  Emax: 10%
[3]; [8]
  IC50: 1580 nM
[3]; [9]
  IC50: 2510 nM and 2000 nM and 794 nM
[3]
  Tc Prot Hill Slope: 1.0 and 0.9
  Tc Prot Max Response (%): 85% and 77%
  Emax: 80%

## CNC(=O)c1cc(NC(=O)c2ccc(=O)n(Cc3ccc(OC)c(F)c3)n2)ccc1F [Compound 27, 1-[(3-Fluoro-4-methoxy-phenyl)methyl]-N-[4-fluoro-3-(methylcarbamoyl)phenyl]-6-oxo-pyridazine-3-carboxamide]
[1]
  EC50: 316 nM
  Emax: 99% and 88% and 89% and 96% and 90% and 97% and 94%
[2]; individual replicate
  Hs Prot Max Response (%): 3.52%
  Hs Prot pIC50: < 4
[2]; [7]
  Hs Prot pIC50: <4
[2]
  Emax: 6%
[3]; [8]
  IC50: 6.31 nM
[3]; [9]
  IC50: 3.98 nM and 10 nM and 7.94 nM
[3]
  Tc Prot Hill Slope: 1.0 and 0.9
  Tc Prot Max Response (%): 60% and 80% and 81%

## COc1ccc(Cn2nc(C(=O)Nc3ccc(F)c(C(=O)NCCN4CCOCC4)c3)ccc2=O)cc1F [Compound 22, 1-[(3-Fluoro-4-methoxy-phenyl)methyl]-N-[4-fluoro-3-(2-morpholinoethylcarbamoyl)phenyl]-6-oxo-pyridazine-3-carboxamide]
[1]
  Emax: 99% and 93% and 95% and 97% and 98% and 91% and 96%
[2]; individual replicate
  Hs Prot Max Response (%): 7% and 14% and 2%
[3]; [9]
  IC50: 15.8 nM
[3]
  Tc Prot Hill Slope: 1.0 and 0.9
  Tc Prot Max Response (%): 80% and 81%
  Emax: 72%

## COc1cccc(Cn2nc(C(=O)Nc3ccc(F)c(C(=O)NC4CC4)c3)ccc2=O)c1 [Compound 13, N-(3-(Cyclopropylcarbamoyl)-4-fluorophenyl)-1-(3-methoxybenzyl)-6-oxo-1,6-dihydropyridazine-3-carboxamide]
[4]
  Mouse CLi: 25 mL/min/g
[5]
  chromatographic logD: 5.5
[1]
  EC50: > 50100 nM
  Emax: 23%
[2]; individual replicate
  Hs Prot Max Response (%): 7%
  Hs Prot pIC50: < 4
[2]; [7]
  Hs Prot pIC50: <4
[2]
  Emax: 9%
[3]; [8]
  IC50: > 100000 nM
[3]; [9]
  IC50: > 100000 nM
[3]
  Tc Prot Max Response (%): 2% and 10%
  T. cruzi Prot pIC50: complete loss of potency

## COc1ccc(Cn2nc(C(=O)Nc3ccc(F)c(C(=O)N[C@H]4C[C@@H](N5CCOCC5)C4)c3)ccc2=O)cc1F [Compound 24, N-(4-Fluoro-3-((cis-3-morpholinocyclobutyl)carbamoyl)phenyl)-1-(3-fluoro-4-methoxybenzyl)-6-oxo-1,6-dihydropyridazine-3-carboxamide]
[1]
  Emax: 93% and 95% and 98% and 96%
[6]
  Emax: 16%
[2]; individual replicate
  Hs Prot Max Response (%): 6.38% and 29% and 23%
  Hs Prot pIC50: < 4
[2]; [7]
  Hs Prot pIC50: <4
[3]; [8]
  IC50: 7.94 nM
[3]; [9]
  IC50: 6.31 nM
[3]
  Tc Prot Hill Slope: 1.1
  Tc Prot Max Response (%): 85% and 87%
  Emax: 82%

## COc1ccc(Cn2nc(C(=O)Nc3ccc(F)c(C(=O)N[C@H]4C[C@H](OC)C4)c3)ccc2=O)cc1 [Compound 19, N-(4-Fluoro-3-((trans-3-methoxycyclobutyl)carbamoyl)phenyl)-1-(4-methoxybenzyl)-6-oxo-1,6-dihydropyridazine-3-carboxamide]
[1]
  Emax: 86% and 80% and 94% and 101% and 90% and 88%
[2]; individual replicate
  Hs Prot Max Response (%): 14%
  Hs Prot pIC50: < 4
[2]; [7]
  Hs Prot pIC50: <4
[2]
  Emax: 16%
[3]; [9]
  IC50: 31.6 nM
[3]
  Tc Prot Hill Slope: 1.0 and 1.1 and 0.9
  Tc Prot Max Response (%): 84% and 95%
  Emax: 78%

## COc1ccc(Cn2nc(C(=O)Nc3ccc(F)c(C(=O)N[C@H](C)CO)c3)ccc2=O)cc1F [Compound 25, (R)-N-(4-Fluoro-3-((1-hydroxypropan-2-yl)carbamoyl)phenyl)-1-(3-fluoro-4-methoxybenzyl)-6-oxo-1,6-dihydropyridazine-3-carboxamide]
[1]
  EC50: 398 nM
  Emax: 92% and 96% and 91% and 89% and 95% and 99%
[2]; individual replicate
  Hs Prot Max Response (%): 0.497% and 2.25% and 10% and 4.33% and 5% and 2.24% and 9%
  Hs Prot pIC50: < 4
[2]; [7]
  Hs Prot pIC50: <4
[3]; [8]
  IC50: 50.1 nM
[3]; [9]
  IC50: 39.8 nM and 31.6 nM and 63.1 nM
[3]
  Tc Prot Hill Slope: 1.1 and 0.95 and 0.9 and 1.0
  Tc Prot Max Response (%): 80% and 82% and 79%
  Emax: 81%

## O=C(Nc1ccc(F)c(C(=O)NC2CC2)c1)c1ccc(=O)n(CC2CCCCC2)n1 [Compound 11, 1-(Cyclohexylmethyl)-N-(3-(cyclopropylcarbamoyl)-4-fluorophenyl)-6-oxo-1,6-dihydropyridazine-3-carboxamide]
[4]
  Mouse CLi: 7.3 mL/min/g
[5]
  chromatographic logD: 5.3
[1]
  EC50: 7940 nM and 10000 nM and 5010 nM and 6310 nM
  Emax: 84% and 78% and 86% and 88%
[6]
  EC50: > 50100 nM
  Emax: 11%
[2]; individual replicate
  Hs Prot Max Response (%): 13% and 33%
  Hs Prot pIC50: < 4
[2]; [7]
  Hs Prot pIC50: <4
[3]; [8]
  IC50: 398 nM
[3]; [9]
  IC50: 501 nM and 316 nM
[3]
  Tc Prot Hill Slope: 0.9 and 0.85
  Tc Prot Max Response (%): 87%
  Emax: 78%

## O=C(NC1CC1)c1cccc(NC(=O)c2ccc(=O)n(Cc3ccccc3)n2)c1 [Compound 5, 1-Benzyl-N-(3-(cyclopropylcarbamoyl)phenyl)-6-oxo-1,6-dihydropyridazine-3-carboxamide]
[1]
  EC50: 7940 nM
  Emax: 73% and 75% and 70% and 81% and 55% and 80% and 83%
[2]; individual replicate
  Hs Prot Max Response (%): 18% and 4% and 2% and 9% and 19% and 28% and 3% and 8% and 12% and 13% and 11% and 20% and 10% and 15%
  Hs Prot pIC50: < 4
[2]; [7]
  Hs Prot pIC50: <4
[3]; [8]
  IC50: 631 nM
[3]
  Tc Prot Hill Slope: 0.5 and 0.8 and 0.9 and 1.1 and 0.95 and 1.0 and 0.74 and 0.7 and 0.6
  Tc Prot Max Response (%): 105% and 88% and 77% and 79% and 81% and 80% and 73% and 74% and 75% and 78%

## CN(C(=O)c1ccc(=O)n(Cc2ccccc2)n1)c1cccc(C(=O)NC2CC2)c1 [Compound 6, 1-Benzyl-N-(3-(cyclopropylcarbamoyl)phenyl)-N-methyl-6-oxo-1,6-dihydropyridazine-3-carboxamide]
[4]
  Mouse CLi: 11 mL/min/g
[5]
  chromatographic logD: 3.3
[1]
  EC50: > 50100 nM
[2]; individual replicate
  Hs Prot Max Response (%): 28% and 21% and 6%
  Hs Prot pIC50: < 4
[2]; [7]
  Hs Prot pIC50: <4
[3]; [8]
  IC50: > 100000 nM
[3]; [9]
  IC50: > 100000 nM
[3]
  T. cruzi Prot pIC50: complete loss of activity
  Emax: 30%

## CN(C(=O)c1cccc(NC(=O)c2ccc(=O)n(Cc3ccccc3)n2)c1)C1CC1 [Compound 7, 1-Benzyl-N-(3-(cyclopropyl(methyl)carbamoyl)phenyl)-6-oxo-1,6-dihydropyridazine-3-carboxamide]
[4]
  Mouse CLi: 19 mL/min/g
[5]
  chromatographic logD: 4.5
[1]
  EC50: > 50100 nM
  Emax: 42%
[6]
  EC50: > 50100 nM
  Emax: 11%
[2]; individual replicate
  Hs Prot Max Response (%): 20% and 27% and 10%
  Hs Prot pIC50: < 4
[2]; [7]
  Hs Prot pIC50: <4
[3]; [8]
  IC50: 20000 nM
[3]; [9]
  IC50: 25100 nM and > 100000 nM and 15800 nM
[3]
  Tc Prot Hill Slope: 0.8 and 0.75
  Tc Prot Max Response (%): 75% and 49% and 40% and 61%

## COc1ccc(Cn2nc(C(=O)Nc3ccc(F)c(C(=O)NC4CC4)c3)ccc2=O)cc1F [Compound 15, N-[3-(Cyclopropylcarbamoyl)-4-fluorophenyl]-1-[(3-fluoro-4-methoxy-phenyl)methyl]-6-oxo-pyridazine-3-carboxamide]
[1]
  EC50: 158 nM
  Emax: 95% and 98% and 93% and 90% and 85% and 94% and 89% and 88%
[2]; individual replicate
  Hs Prot Max Response (%): 17% and 16% and 19% and 12% and 6% and 8% and 5% and 1%
  Hs Prot pIC50: < 4
[2]; [7]
  Hs Prot pIC50: <4

## COc1ccc(Cn2nc(C(=O)Nc3ccc(F)c(C(=O)N[C@H]4C[C@H](OC)C4)c3)ccc2=O)cc1F [Compound 20, N-(4-Fluoro-3-((trans-3-methoxycyclobutyl)carbamoyl)phenyl)-1-(3-fluoro-4-methoxybenzyl)-6-oxo-1,6-dihydropyridazine-3-carboxamide]
[1]
  Emax: 100% and 94% and 92% and 97%
[2]; individual replicate
  Hs Prot Max Response (%): 23%
  Hs Prot pIC50: < 4
[2]; [7]
  Hs Prot pIC50: <4
[2]
  Emax: 20%
[3]; [8]
  IC50: 6.31 nM
[3]; [9]
  IC50: 6.31 nM
[3]
  Tc Prot Hill Slope: 0.9
  Tc Prot Max Response (%): 63% and 86%
